row,melting point [°C],Compound
1,178 to 179,COC(=O)c1ccc(CC2=CCc3ccc(NC(=O)CC4CCCC4)cc32)c(OC)c1
2,92 to 93,Cc1ccc(C(=C/C=C/C=O)c2ccc(C)cc2)cc1
3,106 to 107,Cc1nc(-n2cnn(CCNCc3ccc(F)cc3)c2=O)sc1C(=O)NCc1cccnc1
4,120 to 122,CCCCCCCN(CCCCCSc1nc2ccc([N+](=O)[O-])cc2[nH]1)C(=O)Nc1ccc(F)cc1F
5,144 to 145,CN(c1ccccc1[N+](=O)[O-])S(C)(=O)=O
6,272 to 274,N=C(NO)c1ccc(-c2ccc(-c3ccc(C(=N)NO)cn3)o2)nc1
7,136,Nc1ccc(Oc2ccc3sncc3c2)c(C(F)(F)F)c1
8,202 to 204,CCCn1nc2c(N)nc3ccccc3c2c1CC(C)(C)S(C)(=O)=O
9,177 to 178,NNC(=O)Cc1c(F)cccc1F
10,127 to 129,CCc1nc(/C=C/c2cn(-c3ccccc3)nc2OCc2ccc(OCc3nc(-c4cccc([N+](=O)[O-])c4)oc3C)c(OC)c2)cs1
11,100 to 104,O=C(c1ccccc1)N1CCN(CCCN2C(=O)c3ccccc3C2=O)CC1
12,68 to 70,CCCc1oc2ccccc2c1C(=O)c1ccc(OCCBr)cc1
13,62 to 63,O=c1oc2ncccc2n1CCCBr
14,150 to 152,Cn1cc(C2CCC(=O)CC2)c2cc(C#N)ccc21
15,136 to 143,COc1ccc(-c2cc(=Nc3c(C)cc(C)cc3C)n(C)c(NNC=O)n2)cc1OC
16,195 to 200,O=C(O)CN=c1sc2ccccc2s1
17,259 to 262,CCn1ccc2nc(N3CCN(c4ncc5cc(OC)c(OC)cc5n4)CC3)ncc2c1=O

# More lines, now with the values behind:
row,Compound,melting point [°C]
1,CCOCc1nc2c(N)nc3cccnc3c2n1CC(C)(C)NC(=O)NC(C)C,172 to 174
2,COC1CC(C)(C)C(OC(=O)c2ccccc2)C(OC(=O)c2ccccc2)C=C1C (stereo not drawn),78 to 80
3,CCOC(=O)COc1ccc(NC(=O)OC(C)(C)C)cc1Cl,119 to 120
4,O=C(O)CCNc1cccc(CNC(=O)C2Cc3ccccc3N2S(=O)(=O)c2ccc(-c3cccc(C(F)(F)F)c3)cc2)c1 (stereo not drawn),85
5,"Cc1cn(C2CCN(c3c(F)cc4c(=O)c(C(=O)O)cn5c4c3OCC5C)C2)nn1 (single isomer, unassigned; (-))",241 to 242
6,Cc1nc2cccc3n(CC4CCN(S(=O)(=O)C(F)(F)F)CC4)c(=O)c1n23,150 to 152
7,COc1ccc(-c2nc(Sc3ccc(F)cc3F)[nH]c2-c2ccc(OC)cc2)cc1,174 to 176
8,Oc1cc(O)cc(OCc2ccccc2)c1,85 to 86
9,COC(=O)c1cc(C(=O)N2CCC(C(N)=O)CC2)c2cc(Cc3ccc(F)cc3)cnc2c1O,235 to 238
10,CCOc1cc2ncc(C#N)c(C)c2cc1OCC,140 to 145
11,COc1cc2c(cc1Br)Cc1cc(Br)ccc1-2,172
12,COc1cc(OC)c2c(=O)[nH]c(-c3cc(C)c(OCC(C)(C)O)c(C)c3)cc2c1,252 to 254
13,CCOC1CC(n2cc(CC)c(=O)[nH]c2=O)OC1CN (stereo not drawn),122 to 123
14,C[C@H]1CN(c2ccc([N+](=O)[O-])cc2)[C@@H](C)CN1 (relative stereo),93 to 94
15,COc1cc(C2CCN(C(=O)C(C)(C)N)CC2)ccc1Nc1ncc2ccc(-c3ccccc3N(C)S(C)(=O)=O)n2n1,92 to 100
16,CC(C)NC(=O)Nc1cc(-c2c(-c3ccc(F)cc3)nc3cccnn23)ccn1,222 to 223
17,CCCCC1(N2CCCC2)CCC(c2[nH]c3ccccc3c2CCc2ccncc2)CC1 (stereo not drawn),165 to 175
18,O=Cc1c[nH]c2c1ccc1c3cc(-c4ccc(F)cc4)ccc3[nH]c12,> 250
19,CCOP(=O)(Cc1cc(Cl)c(O)c(C(C)(C)C)c1)OCC,116
20,O=C(C=Cc1ccc(F)c(F)c1)c1ccccc1O,131 to 133
21,CCCC[C@H](NC(=O)[C@H](C)Nc1nc2ccccc2s1)C(=O)OC,99 to 120

# Reference: a melting point compilation (Tetko et al.; mined from patent text by program, amines drawn as free bases though some values may be those of a salt)
